Experimental data from US20110301238A1, “SEIZURE RELATED DISORDERS AND THERAPEUTIC METHODS THEREOF” (priority 2010, published 2011).
Read-outs that look alike come from different tables or passages of the source.

How the values were obtained:
[1] = system: mouse seizure models; design: key: +: Efficacy in mouse seizure models is indicated as plus; −: minus; some (+/−); settings: literature; the PTZ model was performed in rats for PHB, PHT and VPA; cited from earlier work
[2] = system: mouse seizure models; design: key: +: Efficacy in mouse seizure models is indicated as plus; −: minus; some (+/−); settings: literature; cited from earlier work
[3] = system: mouse seizure models; design: key: +: Efficacy in mouse seizure models is indicated as plus; −: minus; some (+/−); settings: literature; cited from earlier work; remark: listed apart in the source
[4] = system: mouse seizure models; design: key: +: Efficacy in mouse seizure models is indicated as plus; −: minus; some (+/−); settings: literature; cited from earlier work; remark: listed apart in the source
[5] = system: Wistar rats; design: key to Efficacy in PTZ in PILO-SE rodents (chronic): +: Efficacy in mouse seizure models is indicated as plus; −: minus; some (+/−); settings: cited from earlier work; for sensitivity of PTZ-induced seizures to drug: one month after pilocarpine, subcutaneous PTZ
[6] = system: CF1 mice; assay: PTZ (i.v.) seizure threshold, second hit model in chronic stage of pilocarpine SE model; format: in vivo; design: key to Efficacy in PTZ in PILO-SE rodents (chronic): +: Efficacy in mouse seizure models is indicated as plus; −: minus; some (+/−)
Description: The pilocarpine CF1 mouse model used in this study was slightly modified from our previous description (Borges et al., 2003, Borges et al., 2004, Borges et al., 2006, Borges et al., 2008). 26-43 g CF1 mice were injected with methylatropine (2 mg/kg i.p. in 0.9% NaCl) to minimize peripheral side effects followed after 15-30 min by different doses of pilocarpine for CF1 mice (270-360 mg/kg, s.c.). About fifty percent of injected mice experienced behavioral status epilepticus (SE) lasting about four hours as defined by continuous seizure activity consisting mainly of whole body continuous clonic seizures. 4.5 h after pilocarpine injection, all mice were injected with pentobarbital (22.5 mg/kg, i.p.) followed by 1 ml 5% dextrose in lactate Ringer's solution (i.p.). After SE, mice were monitored daily, hand-fed moistened cookies and injected with 5% dextrose in lactate Ringer's solution twice a day for about three days and thereafter when needed. Spontaneous and handling-induced seizures, including stage 3-5 seizures, jumping and wild running, were noted. […] “Sham control” mice received methylatropine and pentobarbital, but saline instead of pilocarpine. Out of a total of 205 mice injected with pilocarpine, the inventors obtained 44% SE, 41% no SE mice, while 14% of mice died. In the chronic stage of the pilocarpine model, the seizure thresholds for the first generalized clonic and tonic seizures induced by pentylenetetrazole (PTZ, i.v.) as a measure for seizure susceptibility of SE, no SE and control mice were assessed. As previously described ([…] et al., 2008, Willis et al., 2009), 10 mg/ml PTZ dissolved in saline was infused into the tail vein at 150 μl/min. The latencies to the first generalized myoclonic seizure and tonic extension were determined and converted to seizure thresholds expressed as mg/kg body weight. Mice were euthanized by cervical dislocation immediately after the tonic extension seizure.

[7] = Description: All mice were housed under a 12 h light dark cycle with free access to food and water. […] Adult male CD1 mice (20-35 g, Australian Institute for Bioengineering and Nanotechnology, Australia) were fed similar diet, prepared by Western Specialty Feed (West Australia). […] Diets were mixed fresh every 3-4 days in the laboratory, dried and then supplied to the mice. Mice were initially weighed daily to ensure adequate nutrition.
After 4 days habituation, food intake and body weight were determined daily and then averaged per day for each mouse. 24 h urine samples were taken and organic acids isolated by liquid partition chromatography and trimethylsilyl derivatives quantified by gas chromatography mass spectrometry (Sweetman, 1991). In a separate study mice were fed respective diets for 3 weeks and were decapitated after isoflurane anaesthesia between 1-4 pm. Trunk blood was collected on absorbent filter paper for measurement of acyl-carnitine levels in dried blood spots using tandem mass spectrometry modified from the method of Rashed et al. (Rashed et al., 1997).

[8] = system: CF1 mice; assay: Corneal kindling; format: in vivo; design: key to Delay in corneal kindling (chronic): +: Efficacy in mouse seizure models is indicated as plus; −: minus; some (+/−)
Description: The corneal kindling model was slightly modified from the original protocol ([…] and […], 1998) with kindling twice a day with at least 4 h intervals. A topical anesthetic (0.5% tetracaine hydrochloride ophthalmic solution) was applied to the corneas 10-15 min before stimulation. After wetting the electrodes with 0.9% NaCl immediately before testing, 9 mA 0.4 ms duration pulses at 50 Hz were applied to the corneas for 3 seconds by a constant-current device (ECT Unit 57800, Ugo Basile). Mice were manually held during stimulation and then released for behavioral observation. Seizures were scored according to a modified Racine scale (Racine, 1972) as described by […] and […] (1998) with 0=no reaction or immobility; 1=jaw clonus; 2=myoclonic twitches in the forelimbs, sometimes with head nodding; 3=clonic convulsions in the forelimbs; 4=clonic convulsions in the forelimbs with rearing and falling; 5=loss of balance. […] Both groups had the same average seizure scores for the full kindling period and the last three days of kindling. During the five following weeks, mice were rekindled every week twice a day on two consecutive days and the scores were averaged.

[9] = Plasma β-hydroxybutyrate and glucose in pilocarpine model; format: in vivo, CF1 mice; settings: no significant changes; range over the SE/no SE and diet groups
Excerpt: (§1) Both groups of mice received standard diet during the phase of epileptogenesis, the first two weeks after SE. They were then divided into two groups of equal average weight and received either standard or 35% triheptanoin-containing diet for three weeks. To avoid metabolite changes induced by anesthesia, mice were killed by cervical dislocation and then decapitated. Within 22-32 seconds brains without cerebellum were frozen in liquid nitrogen. Trunk blood was collected in heparinized tubes for analysis of β-hydroxybutyrate and glucose using kits from Pointe Scientific and […], respectively. Brains were stored at -80 C and shipped to the Metabolic Mouse Phenotyping Center at Case Western University for chromatography mass spectrometry (GC-MS/LC-MS) analysis and characterization of intermediates and products of the CAC and acyl-CoA's.

[10] = Urine organic acids (GC-MS); format: in vivo, mice; settings: 24 h urine; levels well below those of propionic acidemia patients
[11] = system: mouse seizure models; assay: PTZ (acute) seizure model; format: in vivo; design: key to Efficacy in PTZ (acute): +: Efficacy in mouse seizure models is indicated as plus; −: minus; some (+/−)
[12] = system: mouse seizure models; assay: 6 Hz (acute) seizure model; format: in vivo; design: key to Efficacy in 6 Hz (acute): +: Efficacy in mouse seizure models is indicated as plus; −: minus; some (+/−)
[13] = Brain metabolite analysis in chronic stage of pilocarpine model (GC-MS/LC-MS); format: in vivo, CF1 mice; settings: for brain BHB (β-hydroxybutyrate) / brain Fumarate (%) / brain GABA / brain aspartate (%) / brain citrate / brain glutamate / brain glutamine / brain malate (%) / brain succinate: 35% triheptanoin for three weeks
Excerpt: as §1

[14] = system: acute seizure models; assay: Fluorothyl acute seizure model; format: in vivo; settings: 30% triheptanoin (Willis and Borges in preparation)
[15] = system: CD1 mice; assay: Maximal electroshock threshold test (MEST); format: in vivo; design: key to Efficacy in MEST (acute): +: Efficacy in mouse seizure models is indicated as plus; −: minus; some (+/−)
Description: 0.5% Tetracaine (Sigma Aldrich) in 0.9% NaCl solution was applied to corneas 30 minutes prior to stimulation. Saline solution was also applied to corneas and electrodes immediately prior to stimulation to ensure solid conduction. Mice were administered corneal electroshocks, which were generated using a Hugo Sachs Type 211 rodent shocker (Harvard Apparatus, Germany). Stimulation parameters of 50-60 Hz sine wave frequency, 0.2 second shock duration starting at an 11 mA current were used (Giardina and Gasior, 2009). Immediately following shock administration mouse seizure behaviour was observed. Severe clonic convulsions followed by tonic extension of both forelimbs were classified as seizures. 1 mA increments were used to determine the seizure threshold CC50 value using the up down method (Kimball et al., 1957). All mice were terminated via cervical dislocation immediately following seizure observational time.

[16] = 30% triheptanoin (Willis and Borges in preparation)
[17] = chronically epileptic SE mice, not in no SE mice

SMILES: CC[C@@H](C(N)=O)N1CCCC1=O [LEV, levetiracetam]
- Efficacy in PTZ (acute) [1]: −
- Delay in corneal kindling (chronic) [2]: +
- Efficacy in MEST (acute) [3]: −
- Efficacy in 6 Hz (acute) [4]: +

SMILES: NC(=O)N1c2ccccc2C=Cc2ccccc21 [CBZ, carbamazepine]
- Efficacy in PTZ (acute) [1]: −
- Efficacy in MEST (acute) [3]: +
- Efficacy in 6 Hz (acute) [4]: +/−

SMILES: O=C1NC(=O)C(c2ccccc2)(c2ccccc2)N1 [PHT, phenyloin]
- sensitivity of PTZ-induced seizures to drug ([5]; SE Wistar rats): not in SE rats
- Efficacy in PTZ in PILO-SE rodents (chronic) ([5]; literature, PTZ model performed in rats for PHB, PHT and VPA): −
- sensitivity of PTZ-induced seizures to drug ([5]; no SE Wistar rats): sensitive
- Efficacy in PTZ (acute) [1]: −
- Efficacy in MEST (acute) [3]: +
- Efficacy in 6 Hz (acute) [4]: +

SMILES: CCCCCCC(=O)OCC(COC(=O)CCCCCC)OC(=O)CCCCCC [Triheptanoin, 1,3-di(heptanoyloxy)propan-2-yl heptanoate]
- PTZ clonic seizure thresholds ([6]; SE or no SE mice, diet for three weeks after pilocarpine): no effect
- reversal of increased susceptibility to PTZ tonic extension in SE mice ([6]; diet initiated immediately after pilocarpine injection, three weeks, p<0.05): about 40%
- Efficacy in PTZ in PILO-SE rodents (chronic) ([6]; mice): +
- reversal of susceptibility to PTZ tonic extension in no SE mice ([6]; no SE mice, three weeks after pilocarpine injection): but not in no SE mice
- counteraction of 30% increased susceptibility to tonic extension seizure in SE mice ([6]; three week feeding initiated two weeks after pilocarpine injection, p<0.05): about 50%
- body weights ([7]; 35% triheptanoin diet vs standard chow, up to 52 days, CF1 mice): statistically indistinguishable
- tolerability ([7]; mouse, in vivo): well tolerated
- development of corneally kindled seizures ([8]; 35% triheptanoin feeding from three weeks prior to and throughout kindling, CF1 mice): delayed the development of kindled seizures
- Delay in corneal kindling (chronic) ([8]; mouse): +
- plasma levels of glucose [9]: 174 to 228 mg/dL
- plasma levels of β-hydroxybutyrate [9]: 0.17 to 0.28 mM
- urine markers for propionic acidemia (methylmalonate, methylcitrate) [10]: some increases
- anticonvulsant effect in acute PTZ (i.v.) model [11, 16]: No consistent anticovulsant effect
- Efficacy in PTZ (acute) ([11]; mouse): −
- anticonvulsant effect in acute 6 Hz model [12, 16]: No consistent anticovulsant effect
- Efficacy in 6 Hz (acute) ([12]; mouse): −
- brain β-hydroxybutyrate levels ([13]; 35% triheptanoin diet, both SE and no SE brains): doubled
- brain BHB (β-hydroxybutyrate) ([13]; No SE mice): 108.9 ± 9.6 μmol/g wet weight
- brain Fumarate (%) ([13]; No SE mice): 82.8 ± 3.8 % of control
- brain GABA ([13]; No SE mice): 2.36 ± 0.13 μmol/g wet weight
- brain aspartate (%) ([13]; No SE mice): 104.0 ± 7.0 % of control
- brain citrate ([13]; No SE mice): 0.21 ± 0.01 μmol/g wet weight
- brain glutamate ([13]; No SE mice): 21.59 ± 0.92 μmol/g wet weight
- brain glutamine ([13]; No SE mice): 12.91 ± 0.49 μmol/g wet weight
- brain malate (%) ([13]; No SE mice): 125.5 ± 7.7 % of control
- brain succinate ([13]; No SE mice): 0.11 ± 0.01 μmol/g wet weight
- brain BHB (β-hydroxybutyrate) ([13]; SE mice): 127.4 ± 15.7 μmol/g wet weight
- brain Fumarate (%) ([13]; SE mice): 81.4 ± 2.9 % of control
- brain GABA ([13]; SE mice): 2.16 ± 0.05 μmol/g wet weight
- brain aspartate (%) ([13]; SE mice): 76.6 ± 4.1 % of control
- brain citrate ([13]; SE mice): 0.2 ± 0.01 μmol/g wet weight
- brain glutamate ([13]; SE mice): 22.01 ± 1.65 μmol/g wet weight
- brain glutamine ([13]; SE mice): 13.15 ± 0.48 μmol/g wet weight
- brain malate (%) ([13]; SE mice): 80.1 ± 3.9 % of control
- brain succinate ([13]; SE mice): 0.10 ± 0.01 μmol/g wet weight
- brain propionyl-CoA levels ([13]; SE mice, triheptanoin feeding, p<0.001): restored
- steady state brain level of succinyl-CoA ([13]; by SE or diet): No significant changes
- increase of brain HMG-CoA levels [13, 17]: 1.8 fold
- increase of brain methylmalonyl-CoA levels [13, 17]: 1.4 fold
- decrease of brain fumarate levels ([13]; no SE mice, p<0.05): 17%
- increase of brain malate levels ([13]; no SE mice, p<0.05): 26%
- anticonvulsant effect in acute fluorothyl model [14]: No consistent anticovulsant effect
- MEST (critical current at which 50% of mice seize, CC50) ([15]; 35% of daily caloric intake as triheptanoin oil, after 3.5 and six weeks, CD1 mice, p=0.018 and p<0.0011): reproducible increase
- Efficacy in MEST (acute) ([15]; mouse): +
